# Laboratory results reported in US8871492B2, “Anti-dementia substance from Hericium erinaceum and method of extraction” (priority 2008, dated 2014).
# Where “and” joins values, the source holds several entries; their conditions need not be identical. Equal values may be shown once.
# Test system: Aβ1-40-induced AD rats
# Assay: Morris Water Maze Test on Aβ1-40-induced AD rats
# Assay type: in vivo, Sprague-Dawley male rats
# Settings: for Arrival Time of Platform: Donepezil 1 mg/kg by stomach tube once per day
# Method: The control group was injected with 5 μL of saline. […] From the fourth week after the administration, learning and memory-related behavior was assessed using the Morris Water Maze Test on ten rats arbitrarily-chosen from each group once a day for one week (from day 1 to day 6 the time to arrive at the platform is measured, and on day 7 the platform is removed and the frequency to cross (pass by) the platform location is counted). After completing the behavioral test, the rats were sacrificed. The cerebral tissues separated from half of the rats of each group were used for pathological examination, and the olfactory bulb, hippocampus, locus ceruleus, and cerebral cortex from another half were used to determine the NGF content with enzyme-linked immunosorbent assay (ELISA).
smiles,measurement,setting,value
COc1cc2c(cc1OC)C(=O)C(CC1CCN(Cc3ccccc3)CC1)C2 (centres unmarked) [Donepezil],Arrival Time of Platform,"Day 1, n = 10",77.03 ± 29.92 s
same,Arrival Time of Platform,"Day 2, n = 10",39.10 ± 26.36 s
same,Arrival Time of Platform,"Day 3, n = 10",34.98 ± 23.42 s
same,Arrival Time of Platform,"Day 4, n = 10",31.10 ± 23.26 s
same,Arrival Time of Platform,"Day 5, n = 10",30.00 ± 21.11 s
same,Arrival Time of Platform,"Day 6, n = 10",28.43 ± 23.45 s
same,Frequencies of crossing platform location within two minutes,"day 7, individual rats No. 1-10, Donepezil 1 mg/kg",14 and 11 and 22 and 19 and 10 (2×) and 13 and 8 and 6 and 7
same,"Frequencies of crossing platform location within two minutes, Mean ± SD","day 7, n = 10, Donepezil 1 mg/kg",12.00 ± 5.16
